What was measured:
[1] = tested on: rat; details: Subchronic oral toxicity in rodents, sprague dawley, Injection, Intraperitoneal, dose end: 45 day, group: systemic
[2] = tested on: mouse; details: Carcinogenicity, b6c3f1, Injection, Intraperitoneal, dose end: 52 week, group: systemic
[3] = tested on: rat; details: Carcinogenicity, sprague dawley, Injection, Intraperitoneal, dose end: 52 week, group: systemic
[4] = tested on: rat; details: Sub-acute repeat dose toxicity, sprague dawley, Oral, Gavage/Intubation, dose end: 4 week, group: systemic
[5] = tested on: rabbit; details: Prenatal developmental toxicity study, new zealand white, Oral, Gavage/Intubation, dose end: 18 GD, group: maternal
[6] = tested on: dog; details: Chronic toxicity; beagle; Oral; Capsule; dose end: 6 month; group: systemic; systemic / clinical chemistry / triglycerides / triglycerides + systemic / in life observation / body weight / body weight gain + systemic…
[7] = tested on: rat; details: Prenatal developmental toxicity study; sprague dawley; Oral; Gavage/Intubation; dose end: 15 GD; group: maternal; systemic / in life observation / clinical signs / salivation
[8] = tested on: mouse; details: Subchronic oral toxicity in rodents, cd1, Gavage/Intubation, dose end: 94 days, group: systemic
[9] = tested on: mouse; details: Carcinogenicity; cd1; Oral; Gavage/Intubation; dose end: 2 year; group: systemic; systemic / in life observation / body weight / body weight gain + systemic / in life observation / clinical signs / [other] + systemic / in …
[10] = tested on: rat; details: Peri- and post-natal toxicity study (Segment III), sprague dawley, Oral, Gavage/Intubation, dose end: 4 PND
[11] = tested on: dog; details: Chronic toxicity, beagle, Oral, Capsule, dose end: 52 week, group: systemic
[12] = tested on: rabbit; details: Prenatal developmental toxicity study, new zealand white, Oral, Gavage/Intubation, dose end: 18 GD, group: maternal; remark: listed apart in the source
[13] = tested on: rat; details: Prenatal developmental toxicity study; sprague dawley; Oral; Gavage/Intubation; dose end: 15 GD; group: maternal; reproductive / reproductive performance / estrous cycle / corpora lutea + reproductive / reproductive performance / implantations / …
[14] = tested on: rat; details: Carcinogenicity; sprague dawley; Oral; Gavage/Intubation; dose end: 2 year; group: systemic; systemic / in life observation / body weight / body weight gain + systemic / in life observation / clinical signs / [other] + systemic / in …
[15] = tested on: rat; details: Fertility (Segment I), sprague dawley, Oral, Gavage/Intubation, dose end: 7 GD, group: parental
[16] = tested on: rat; details: Peri- and post-natal toxicity study (Segment III), sprague dawley, Oral, Gavage/Intubation, dose end: 21 PND
[17] = tested on: rat; details: Chronic toxicity, sprague dawley, Oral, Gavage/Intubation, dose end: 6 month, group: systemic
[18] = systemic / in life observation / clinical signs / distended abdomens + systemic / in life observation / mortality / mortality + systemic / …
[19] = systemic / in life observation / mortality / mortality
[20] = systemic / pathology microscopic / peritoneum / sarcoma + systemic / in life observation / body weight / body weight + systemic / in life …
[21] = systemic / in life observation / mortality / mortality + systemic / pathology microscopic / peritoneum / sarcoma
[22] = systemic / in life observation / mortality / mortality + systemic / pathology microscopic / peritoneum / sarcoma + systemic / in life …
[23] = systemic / clinical chemistry / potassium / potassium + systemic / clinical chemistry / sodium / sodium + systemic / in life observation / …
[24] = systemic / in life observation / clinical signs / motor activity
[25] = systemic / in life observation / body weight / body weight gain + systemic / in life observation / food consumption / food consumption
[26] = systemic / in life observation / food consumption / food consumption
[27] = systemic / clinical chemistry / calcium / calcium + systemic / clinical chemistry / cholesterol / cholesterol + systemic / clinical …
[28] = systemic / clinical chemistry / potassium / potassium + systemic / clinical chemistry / bilirubin / total bilirubin + systemic / clinical …
[29] = group: maternal, reproductive / offspring survival early / birth index / live birth index
[30] = group: parental, systemic / in life observation / clinical signs / [other] + systemic / in life observation / clinical signs / labored respiration + systemic…
[31] = group: parental, systemic / in life observation / clinical signs / [other] + systemic / in life observation / clinical signs / salivation + systemic / in …
[32] = systemic / clinical chemistry / triglycerides / triglycerides + systemic / in life observation / body weight / body weight gain
[33] = systemic / clinical chemistry / triglycerides / triglycerides + systemic / in life observation / body weight / body weight gain + systemic…
[34] = reproductive / reproductive performance / aborted / aborted + reproductive / reproductive performance / postimplantation loss / …
[35] = systemic / in life observation / clinical signs / abnormal respiratory sounds + systemic / in life observation / clinical signs / urogenital…
[36] = systemic / in life observation / clinical signs / abnormal respiratory sounds + systemic / in life observation / food consumption / food …
[37] = group: maternal, reproductive / reproductive performance / reproductive performance other / NOS
[38] = group: maternal, reproductive / reproductive performance / reproductive performance other / NOS + reproductive / offspring survival early / litter viability …
[39] = group: offspring, systemic / in life observation / body weight / offspring (pup) weight
[40] = group: parental, systemic / in life observation / clinical signs / abnormal respiratory sounds + systemic / in life observation / clinical signs / emaciation…
[41] = group: parental, systemic / in life observation / mortality / mortality
[42] = systemic / clinical chemistry / chloride / chloride + systemic / clinical chemistry / triglycerides / triglycerides + systemic / clinical …

SMILES: CC(COc1ccccc1)N(CCCl)Cc1ccccc1.Cl (stereo not given) [Phenoxybenzamine hydrochloride]
- LEL ([1]; systemic / in life observation / clinical signs / distended abdomens): 15 mg/kg/day
- LOAEL [1, 18]: > 30 mg/kg/day
- NEL [1, 18]: 7.5 mg/kg/day
- NOAEL [1, 18]: ≥ 30 mg/kg/day
- LEL [2, 19]: 12.5 mg/kg/day
- NEL [2, 19]: < 12.5 mg/kg/day
- LOAEL [2, 20]: > 25 mg/kg/day
- NOAEL [2, 20]: ≥ 25 mg/kg/day
- LEL [3, 21]: 5 mg/kg/day
- NEL [3, 21]: < 5 mg/kg/day
- LOAEL [3, 22]: > 10 mg/kg/day
- NOAEL [3, 22]: ≥ 10 mg/kg/day

SMILES: CCOC(=O)COc1ccc2c(c1)CC(NCC(O)c1cccc(Cl)c1)CC2.Cl (stereo not given)
- LOAEL [4, 23]: > 500 mg/kg/day
- NOAEL [4, 23]: ≥ 500 mg/kg/day
- LEL [4, 24]: 20 mg/kg/day
- NEL [4, 24]: < 20 mg/kg/day
- LOAEL [5, 25]: > 500 mg/kg/day
- NOAEL [5, 25]: ≥ 500 mg/kg/day
- LEL [5, 26]: 50 mg/kg/day
- NEL [5, 26]: < 50 mg/kg/day
- LEL [6]: 10 mg/kg/day
- LOAEL [6]: > 250 mg/kg/day
- NEL [6]: < 10 mg/kg/day
- NOAEL [6]: ≥ 250 mg/kg/day
- LEL [7]: 200 mg/kg/day
- LOAEL [7]: > 750 mg/kg/day
- NEL [7]: 50 mg/kg/day
- NOAEL [7]: ≥ 750 mg/kg/day
- LOAEL [8, 27]: > 500 mg/kg/day
- NOAEL [8, 27]: ≥ 500 mg/kg/day
- LEL [8, 28]: 100 mg/kg/day
- NEL [8, 28]: < 100 mg/kg/day
- LEL [9]: 25 mg/kg/day
- LOAEL [9]: > 100 mg/kg/day
- NEL [9]: < 25 mg/kg/day
- NOAEL [9]: ≥ 100 mg/kg/day
- LEL [10, 29]: 200 mg/kg/day
- LOAEL [10, 29]: > 750 mg/kg/day
- NEL [10, 29]: 50 mg/kg/day
- NOAEL [10, 29]: ≥ 750 mg/kg/day
- LOAEL [10, 30]: > 750 mg/kg/day
- NOAEL [10, 30]: ≥ 750 mg/kg/day
- LEL [10, 31]: 50 mg/kg/day
- NEL [10, 31]: < 50 mg/kg/day
- LEL [11, 32]: 10 mg/kg/day
- NEL [11, 32]: < 10 mg/kg/day
- LOAEL [11, 33]: > 250 mg/kg/day
- NOAEL [11, 33]: ≥ 250 mg/kg/day
- LOAEL [12, 34]: > 500 mg/kg/day
- NEL [12, 34]: 50 mg/kg/day
- NOAEL [12, 34]: ≥ 500 mg/kg/day
- LEL ([12]; reproductive / reproductive performance / postimplantation loss / postimplantation loss): 160 mg/kg/day
- LEL [13]: 200 mg/kg/day
- LOAEL [13]: > 750 mg/kg/day
- NEL [13]: 50 mg/kg/day
- NOAEL [13]: ≥ 750 mg/kg/day
- LEL [14]: 50 mg/kg/day
- LOAEL [14]: > 500 mg/kg/day
- NEL [14]: < 50 mg/kg/day
- NOAEL [14]: ≥ 500 mg/kg/day
- LOAEL [15, 35]: > 750 mg/kg/day
- NOAEL [15, 35]: ≥ 750 mg/kg/day
- LEL [15, 36]: 50 mg/kg/day
- NEL [15, 36]: < 50 mg/kg/day
- LEL [16, 37]: 50 mg/kg/day
- NEL [16, 37]: < 50 mg/kg/day
- LOAEL [16, 38]: > 750 mg/kg/day
- NOAEL [16, 38]: ≥ 750 mg/kg/day
- LEL [16, 39]: 50 mg/kg/day
- LOAEL [16, 39]: 200 mg/kg/day
- NEL [16, 39]: < 50 mg/kg/day
- NOAEL [16, 39]: 50 mg/kg/day
- LOAEL [16, 40]: > 750 mg/kg/day
- NOAEL [16, 40]: ≥ 750 mg/kg/day
- LEL [16, 41]: 50 mg/kg/day
- NEL [16, 41]: < 50 mg/kg/day
- LOAEL [17, 42]: > 500 mg/kg/day
- NOAEL [17, 42]: ≥ 500 mg/kg/day
- LEL [17, 33]: 20 mg/kg/day
- NEL [17, 33]: < 20 mg/kg/day

Source: EPA's ToxRefDB 2
